{"source": "patent US20010012854A1", "about": "“MULTICATALYTIC PROTEASE INHIBITORS FOR USE AS ANTI-TUMOR AGENTS” (priority 1997, published 2001)", "key": {"[1]": {"molecular_target": "MCP chymotrypsin-like activity (Homo sapiens, UniProt P28074)", "test": "Inhibition of MCP chymotrypsin-like activity", "type": "biochemical", "text": "(§1) The rank-order potency for Jurkat cell killing precisely matched the order for MCP inhibition (Table 2, below).\nInhibition of the chymotrypsin-like activity of MCP by the disclosed MCP inhibitors has been reported, but these MCP inhibitors produced relatively little inhibition on the MCP trypsin-like activity and cathepsin B, a vacuolar cysteine protease (Iqbal, M., et al. J. Med Chem. 38: 2276-2277, 1995; Iqbal, M., et al. Bioorg. Med. Chem. Lett. 6: 287-290, 1996; and Harding, C. V., et al. J. Immuno. 155: 1767-1775, 1995). Furthermore, the order of potency for inhibition of the chymotrypsin-like activity was reported to be Compound A>Compound B>Compound C by using both isolated MCP and intact murine B cells (Iqbal, M., et al. J. Med Chem. 38: 2276-2277, 1995; Iqbal, M., et al. Bioorg. Med. Chem. Lett. 6: 287-290, 1996; and Harding, C. V., et al. J. Immuno. 155: 1767-1775, 1995)."}, "[2]": {"tested_on": "Jurkat Human T Cell Leukemia Line", "test": "Jurkat cell viability assay (XTT reduction)", "type": "cell-based", "conditions": "Jurkat cells, 24 hours, viability by XTT reduction, read-out: Toxicity (IC50)", "procedure": "f. Cell viability assay. Jurkat cells were treated with MCP inhibitors or vehicle for 30 min. at 37° C. Next, ionomycin (1 μM) and the phorbol ester PMA (10 ng/ml) were added, together with 0.2% ethanol. After 24 h, cell viability was assessed by reduction of XTT (Sigma, X4251). To each well, 50 μl of XTT (1 mg/ml) and 25 μl PMS (Sigma 9625, 5 mM) were added. After 3 h at 37° C., the OD of each well was read at 450 nm/690 nm by a plate reader.\nas §1"}, "[3]": {"tested_on": "Jurkat cells transfected with a control vector", "test": "Apoptotic nuclear changes (Hoechst staining) in Jurkat cells transfected with control vector", "type": "cell-based, human", "procedure": "(§2) b. Cell culture. Human Jurkat T and HL-60 cells were grown in RPMI 1640 (Life Technologies, Inc.) supplemented with 10% fetal calf serum (Sigma), 100 units/ml of penicillin, 100 μg/ml of streptomycin and 2mM L-glutamine (growth medium). Jurkat T. cells overexpressing the Bcl-2 oncoprotein or vector alone (provided by Dr. D. Johnson, University of Pittsburgh, Pa.) were grown in the same growth medium with […] G418. Human cancer cell lines of breast (MCF-7, MDA-MB-231), prostate (DU145, PC3) and osteosarcoma (U2-OS), obtained from American Type Culture Collection (ATCC. Rockville, Md.)), were also grown in the RPMI growth medium. Human oral (SCC-25; from ATCC) and brain (SNB-19; Welch, W. C., et al. In Vitro Cell. Dev. Biol., 31:610-616, 1995) cancer cell lines, and normal (WI-38) and SV40-transformed human fibroblasts (WI-38 VA-13; from ATCC) were grown in DMEM medium containing 10% fetal calf serum, penicillin, streptomycin and L-glutamine.\n(§3) d. Flow cytometry nuclear staining and DNA fragmentation assays. DNA content analysis using flow cytometry was performed as described previously (Nicoletti, I., et al. J. Immunol. Methods 139:271-279, 1992). To assay nuclear morphology, cells were washed with PBS, fixed with 70% ethanol for 1 h, and stained with Hoechst 33258 (1 mM) for 30 min. The nuclear morphology of cells was visualized by fluorescence microscope (OLYMPUS BH2). DNA fragmentation was assayed as described previously (Grant, S., et al. Cancer Res. 52:6270-6278, 1992).\nThe apoptosis-inducing potency of Compound A was compared with two standard chemotherapeutic anti-cancer agents, etoposide and cisplatin. […] By comparison, treatment with 50 μM etoposide for 8 h induced only ˜47% of these cells to undergo apoptosis (FIG. 3, panels c vs. a). Treatment of 10 μM Compound A, but not etoposide or cisplatin, induced apoptosis in human prostate, breast, tongue and brain cancer cells and also in SV40 DNA virus-transformed human fibroblasts (see FIGS. 5-7)."}, "[4]": {"tested_on": "Bcl-2-overexpressing Jurkat cells", "test": "Apoptosis in Bcl-2-overexpressing Jurkat cells (nuclear staining, western blot)", "type": "cell-based, human", "procedure": "as §2, §3\ne. Whole cell extracts and western blot assay. To prepare whole cell extracts, cells were washed with PBS, and homogenized in lysis buffer (50 mM Tris, pH 8.0, 5 mM EDTA, 150 mM NaCl, 0.5% Nonidet P-40, 0.5 mM PMSF and 0.5 mM dithiothreitol). Following 30 min rocking at 4° C., the lysates were centrifuged and the supernatants were collected as whole cell extracts. The protein samples were then analyzed by sodium dodecyl sulfate-6% polyacrylamide gel electrophoresis (20-60 μg protein per lane) followed by the enhanced chemiluminescence Western blot assay using specific antibodies to CPP32, PARP, p21, p27 or RB.\nIt has been shown that overexpression of Bcl-2 oncoprotein inhibits apoptosis in many cell systems (Miura, M., et al., J. Cell 75: 653-660, 1993). Bcl-2 expression in human Jurkat T cells for inhibition of Compound A-induced apoptosis was investigated."}, "[5]": {"tested_on": "Human prostate cancer PC-3 cells", "test": "Detachment and apoptotic nuclear changes in PC-3 cells", "type": "cell-based", "conditions": "PC-3, 10 μM, 36 h", "procedure": "(§4) c. Treatment of cells with MCP inhibitor. Cells were treated with a specified MCP Inhibitor, a standard anticancer agent (etoposide or cisplatin), or DMSO (vehicle). During this process, morphological changes and cellular detachment (for attached cell lines) were monitored. At each time point, cells were harvested, and used for measurement of apoptosis and other biochemical events. In Example 1, infra, involving YVAD-CMK, Compound A was first added to Jurkat T cells. This was followed immediately by dividing the cells into multiple tissue culture flasks. YVAD-CMK was then added to an indicated concentration.\nas §3\nHuman prostate cancer PC-3 cells were treated with 10 μM Compound A, etoposide, or an equal percentage of vehicle (DMSO), followed by separation of the attached and detached cell populations. Both attached and detached cell populations were then used for detection of apoptotic nuclear changes. After 36 h treatment with Compound A, ˜50% of PC-3 cells became detached."}, "[6]": {"tested_on": "human prostate cancer DU145 cells", "test": "Detachment and apoptotic nuclear changes in DU145 cells", "type": "cell-based", "conditions": "DU145, 16 h", "procedure": "as §4, §3\nSimilar to PC-3, about half of human prostate cancer DU145 cells became detached after exposure to Compound A for 16 h."}, "[7]": {"tested_on": "oral aquamous carcinoma cell line SCC-25", "test": "Detachment and apoptosis in SCC-25 cells", "type": "cell-based, human", "procedure": "as §4, §3"}, "[8]": {"tested_on": "osteosarcoma cell line U2OS", "test": "Detachment and apoptosis in U2OS cells", "type": "cell-based, human", "conditions": "U2OS (data not shown)", "procedure": "as §4, §3"}}, "data": [{"smiles": "CC(C)C[C@@H](C=O)NC(=O)[C@@H](CCCNC(=N)N[N+](=O)[O-])NC(=O)C(CCCCCCCCN1C(=O)c2ccccc2C1=O)C1CCCC1", "note": "(stereo partly shown) [Compound A]", "values": [{"measurement": "IC50", "setting": "[1]", "result": 2, "unit": "nM"}, {"measurement": "IC50", "setting": "[2]", "result": 500, "unit": "nM"}, {"measurement": "Cells exhibiting apoptotic nuclear morphology", "setting": "[3]; 15 μM, 8 h", "result": 30, "unit": "%"}, {"measurement": "Cells exhibiting apoptotic nuclear changes", "setting": "[3]; 30 μM, 3.5 h", "result": "~100", "unit": "%"}, {"measurement": "Effect of Bcl-2 overexpression on induced PARP cleavage and p112-115/RB production", "setting": "[4]; 15 μM", "result": "failed to block cleavage of PARP and production of p112-115/RB"}, {"measurement": "Effect of Bcl-2 expression on induced apoptotic nuclear changes", "setting": "[4]; 15 μM, 8 h", "result": "did not inhibit the apoptotic nuclear changes"}, {"measurement": "Cells exhibiting apoptosis-specific nuclear morphology", "setting": "[4]; Bcl-2-overexpressing Jurkat, 30 μM, 3.5 h", "result": "~100", "unit": "%"}, {"measurement": "Detached cells", "setting": "[5]", "result": "~50", "unit": "%"}, {"measurement": "Nuclear morphology (apoptotic condensation and fragmentation)", "setting": "[5]", "result": "All the detached PC-3 cells exhibited typical apoptotic nuclear condensation and fragmentation"}, {"measurement": "Detached cells", "setting": "[6]", "result": "about half"}, {"measurement": "Nuclear morphology", "setting": "[6]", "result": "Almost all the detached and even the attached DU145 cells exhibited apoptosis-specific nuclear morphology"}, {"measurement": "Induction of cellular detachment and apoptosis", "setting": "[7]", "result": "induced cellular detachment and apoptosis"}, {"measurement": "Induction of cellular detachment and apoptosis", "setting": "[8]", "result": "induced cellular detachment and apoptosis"}]}]}
